Experimental data published in BindingDB's records for doi:10.1021/acschembio.5b00514 (Technische Universität München, 2015).

Experiments:
Test in all cases: Activity-based Protein Profiling (ABPP)
Details in all cases: pH 7.4; 37 °C
[1] = target: T1, AN1-type domain-containing protein (Archaeoglobus fulgidus (strain ATCC 49558 / DSM 4304 / JCM 9628 / NBRC 100126 / VC-16), UniProt O29251)
T1 sequence (O29251 whole entry): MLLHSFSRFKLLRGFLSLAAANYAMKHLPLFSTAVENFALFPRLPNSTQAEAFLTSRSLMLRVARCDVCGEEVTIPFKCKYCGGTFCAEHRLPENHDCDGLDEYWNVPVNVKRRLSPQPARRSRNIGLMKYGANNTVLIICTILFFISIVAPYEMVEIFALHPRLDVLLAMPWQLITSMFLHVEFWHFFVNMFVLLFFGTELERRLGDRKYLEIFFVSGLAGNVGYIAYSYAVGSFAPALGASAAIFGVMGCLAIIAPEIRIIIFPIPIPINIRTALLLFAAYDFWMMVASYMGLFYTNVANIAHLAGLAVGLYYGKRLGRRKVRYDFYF
From the text: (§1) We selected several inhibitor structures and determined their apparent IC50 by competitive ABPP.

[2] = target: T2, GlpG protein (Vibrio cholerae, UniProt Q9KVP2)
T2 sequence (Q9KVP2 whole entry): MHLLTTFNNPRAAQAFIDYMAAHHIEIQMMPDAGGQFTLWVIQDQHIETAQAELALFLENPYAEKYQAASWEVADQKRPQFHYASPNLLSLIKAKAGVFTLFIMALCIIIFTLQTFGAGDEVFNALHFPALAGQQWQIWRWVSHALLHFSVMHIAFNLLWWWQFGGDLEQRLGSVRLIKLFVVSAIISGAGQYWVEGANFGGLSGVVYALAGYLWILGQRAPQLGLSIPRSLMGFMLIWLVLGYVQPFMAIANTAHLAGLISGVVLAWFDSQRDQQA
From the text: as §1

[3] = target: T3, Rhomboid domain-containing protein (Aquifex aeolicus (strain VF5), UniProt O67346)
T3 sequence (O67346 whole entry): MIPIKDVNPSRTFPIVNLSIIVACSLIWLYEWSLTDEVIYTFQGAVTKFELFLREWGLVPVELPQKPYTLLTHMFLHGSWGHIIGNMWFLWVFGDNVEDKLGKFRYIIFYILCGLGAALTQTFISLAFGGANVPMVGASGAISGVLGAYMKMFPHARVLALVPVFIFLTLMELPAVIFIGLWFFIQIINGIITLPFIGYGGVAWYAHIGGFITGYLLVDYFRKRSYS
From the text: as §1

[4] = target: T4, Rhomboid domain-containing protein (Pyrococcus horikoshii (strain ATCC 700860 / DSM 12428 / JCM 9974 / NBRC 100139 / OT-3), UniProt O59166)
T4 sequence (O59166 whole entry): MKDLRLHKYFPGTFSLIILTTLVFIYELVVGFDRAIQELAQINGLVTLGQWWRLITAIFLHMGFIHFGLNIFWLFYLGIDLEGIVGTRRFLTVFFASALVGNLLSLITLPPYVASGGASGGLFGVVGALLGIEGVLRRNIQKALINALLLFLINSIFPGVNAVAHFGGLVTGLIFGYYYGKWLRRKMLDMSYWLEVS
From the text: as §1

[5] = target: T5, Rhomboid domain-containing protein (Thermotoga maritima (strain ATCC 43589 / DSM 3109 / JCM 10099 / NBRC 100826 / MSB8), UniProt Q9WZ53)
T5 sequence (Q9WZ53 whole entry): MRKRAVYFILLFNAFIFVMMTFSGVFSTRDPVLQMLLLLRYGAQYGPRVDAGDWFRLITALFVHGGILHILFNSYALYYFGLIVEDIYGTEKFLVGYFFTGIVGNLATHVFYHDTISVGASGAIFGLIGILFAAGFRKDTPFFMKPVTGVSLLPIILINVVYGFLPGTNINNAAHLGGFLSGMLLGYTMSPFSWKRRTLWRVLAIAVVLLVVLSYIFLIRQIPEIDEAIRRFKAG
From the text: as §1

[6] = target: T6, Rhomboid protease AarA (Providencia stuartii, UniProt P46116)
T6 sequence (P46116 whole entry): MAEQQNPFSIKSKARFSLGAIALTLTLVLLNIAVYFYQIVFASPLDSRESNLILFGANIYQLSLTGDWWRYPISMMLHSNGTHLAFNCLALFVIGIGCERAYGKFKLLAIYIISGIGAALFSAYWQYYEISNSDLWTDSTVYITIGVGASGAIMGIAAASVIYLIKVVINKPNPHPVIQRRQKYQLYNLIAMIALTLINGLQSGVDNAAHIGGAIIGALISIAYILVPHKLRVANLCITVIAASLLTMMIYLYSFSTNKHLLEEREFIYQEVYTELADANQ
From the text: as §1

[7] = target: T7, Rhomboid protease GlpG (Escherichia coli (strain K12), UniProt P09391)
T7 sequence (P09391 whole entry): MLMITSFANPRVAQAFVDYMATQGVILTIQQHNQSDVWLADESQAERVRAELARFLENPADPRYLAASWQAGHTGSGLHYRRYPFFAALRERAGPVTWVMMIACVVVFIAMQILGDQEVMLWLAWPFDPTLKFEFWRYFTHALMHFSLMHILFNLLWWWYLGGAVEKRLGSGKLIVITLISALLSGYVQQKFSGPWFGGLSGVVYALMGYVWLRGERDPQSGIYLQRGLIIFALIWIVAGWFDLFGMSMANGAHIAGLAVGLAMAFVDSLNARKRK
From the text: as §1

[8] = target: T8, Rhomboid protease GlpG (Haemophilus influenzae, UniProt A0A2R3FW87)
T8 sequence (A0A2R3FW87 whole entry): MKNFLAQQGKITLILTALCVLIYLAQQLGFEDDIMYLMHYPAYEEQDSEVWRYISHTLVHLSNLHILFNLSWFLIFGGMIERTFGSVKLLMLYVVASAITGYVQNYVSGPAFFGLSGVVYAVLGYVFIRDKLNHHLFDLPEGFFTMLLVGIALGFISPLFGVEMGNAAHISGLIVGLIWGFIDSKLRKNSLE
From the text: as §1

[9] = target: Rhomboid protease GluP [F193S,L370F,L379S,R499W] (Bacillus subtilis (strain 168), UniProt P54493, F193S/L370F/L379S/R499W)
Sequence of Rhomboid protease GluP [F193S,L370F,L379S,R499W] (P54493 whole entry F192S/L370F/L379S/R499W): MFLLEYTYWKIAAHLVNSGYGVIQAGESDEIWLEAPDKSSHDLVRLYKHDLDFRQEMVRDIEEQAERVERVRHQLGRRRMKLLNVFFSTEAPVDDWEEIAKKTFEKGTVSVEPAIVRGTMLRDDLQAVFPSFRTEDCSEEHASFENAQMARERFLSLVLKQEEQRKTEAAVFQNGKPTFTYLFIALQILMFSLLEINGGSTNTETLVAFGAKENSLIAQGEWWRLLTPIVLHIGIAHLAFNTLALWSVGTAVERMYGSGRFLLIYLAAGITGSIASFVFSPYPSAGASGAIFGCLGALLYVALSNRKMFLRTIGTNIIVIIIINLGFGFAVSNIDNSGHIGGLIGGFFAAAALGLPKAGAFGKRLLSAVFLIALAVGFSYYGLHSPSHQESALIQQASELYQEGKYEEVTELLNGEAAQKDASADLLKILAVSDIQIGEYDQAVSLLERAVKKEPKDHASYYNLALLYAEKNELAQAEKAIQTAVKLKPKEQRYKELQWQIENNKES
From the text: as §1

[10] = target: T9, Rhomboid-related protein 1 (Mus musculus, UniProt Q8VC82)
T9 sequence (Q8VC82 whole entry): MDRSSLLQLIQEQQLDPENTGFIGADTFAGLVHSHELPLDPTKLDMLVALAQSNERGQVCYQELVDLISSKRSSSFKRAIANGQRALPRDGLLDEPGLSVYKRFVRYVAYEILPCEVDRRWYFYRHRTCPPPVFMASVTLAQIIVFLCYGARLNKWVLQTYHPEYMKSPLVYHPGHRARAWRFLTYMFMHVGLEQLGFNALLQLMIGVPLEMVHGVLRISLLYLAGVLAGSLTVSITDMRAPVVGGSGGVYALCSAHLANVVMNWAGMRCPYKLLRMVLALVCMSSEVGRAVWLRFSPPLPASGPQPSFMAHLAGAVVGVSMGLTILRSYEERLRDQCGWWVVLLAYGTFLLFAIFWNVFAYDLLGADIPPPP
From the text: as §1

[11] = target: T10, Rhomboid-related protein 3 (Mus musculus, UniProt P58873)
T10 sequence (P58873 whole entry): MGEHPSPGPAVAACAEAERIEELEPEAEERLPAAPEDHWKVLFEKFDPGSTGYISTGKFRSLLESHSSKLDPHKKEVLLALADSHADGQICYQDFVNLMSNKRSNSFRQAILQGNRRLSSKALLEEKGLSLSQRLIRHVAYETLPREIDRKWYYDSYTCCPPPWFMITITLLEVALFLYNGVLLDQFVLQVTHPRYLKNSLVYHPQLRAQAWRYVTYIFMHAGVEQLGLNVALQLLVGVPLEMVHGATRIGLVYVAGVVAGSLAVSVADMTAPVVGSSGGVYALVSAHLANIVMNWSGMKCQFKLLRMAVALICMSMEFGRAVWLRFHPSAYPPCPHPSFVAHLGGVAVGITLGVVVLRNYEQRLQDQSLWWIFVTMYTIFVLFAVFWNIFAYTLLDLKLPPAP
From the text: as §1

Row | SMILES | IC50 [1] [µM] | IC50 [2] [µM] | IC50 [3] [nM] | IC50 [4] [µM] | IC50 [5] [µM] | IC50 [6] [µM] | IC50 [7] [µM] | IC50 [8] [µM] | IC50 [9] [µM] | IC50 [10] [µM] | IC50 [11] [µM]
1 | O=c1oc(Cl)c(Cl)c2ccccc12 | 8.1 | 27 | 1100 | 16 | 1 | 10 | 19 | 0.66 | 4.1 | 28 | 70
2 | O=c1oc(OCCCCCc2ccccc2)c(Cl)c2ccc([N+](=O)[O-])cc12 [4‐Chloro‐7‐nitro‐3‐[(5‐phenylpentyl)oxy]isochromen‐1‐one (21)] | – | 76 | 1700 | 25 | 28 | 10 | – | 4.6 | 25 | 39 | 24
3 | C#CCCC[C@@H]1OC(=O)[C@H]1CCCC [(4S)‐3‐butyl‐4‐(pent‐4‐yn‐1‐yl)oxetan‐2‐one (48)] | – | – | – | – | 48 | – | 44 | – | – | – | –
4 | C#CCCC[C@@H]1OC(=O)[C@H]1c1cc(OC)c(OC)c(OC)c1 [(4S)‐4‐(pent‐4‐yn‐1‐yl)‐3‐(3,4,5‐trimethoxyphenyl)oxetan‐2‐one (45)] | 5 | – | – | – | – | – | – | 65 | – | – | –
5 | C#CCCC[C@@H]1OC(=O)[C@H]1CCCCC [(4S)‐4‐(pent‐4‐yn‐1‐yl)‐3‐pentyloxetan‐2‐one (47)] | – | – | – | – | 27 | – | – | – | – | – | –
